Measured values taken from PubChem BioAssay AID1963852 (Molecular Pharmacology Branch, DTP, NCI, 2024).
pIC50: −log10 of the molar value.

Tested on: 282377-053-R-J1-PDC complex spheroid viability
Experiment: Anticancer human tumor 282377-053-R-J1-PDC patient-derived colon adenocarcinoma cell line growth inhibition [POLQ]
Settings: for pIC50: curve of first compound; for viability, T/C: stronger effect = lower value
Procedure: Multicellular complex tumor spheroid response to Polymerase (POL) inhibitors (novobiocin, ART-558, RP6685) in combination with a variety of drugs and investigational agents in selected tumor cell lines
The POL inhibitors (novobiocin, ART-558, and RP6685) were evaluated both individually and in combination with standard of care and investigational anticancer small molecules within a complex spheroid model of solid tumors. . Complex spheroids include a stromal component modeled by human endothelial cells (HUVEC) and fibroblasts modeled by human mesenchymal stem cells (MSCs). The concentration ranges selected for each drug and investigational agent were based upon clinically achievable concentrations if the clinical Cmax of the agent was known.
Compounds. The drugs and investigational agents: novobiocin (NSC847541), ART-558 (NSC835418), RP-6685 (NSC848927), peposertib (NSC802822), ceralasertib (NSC780249), elimusertib (NSC800525), camonsertib (NSC841442), AZD-1390 (NSC803789), olaparib (NSC753686), talazoparib (NSC767125), rucaparib (NSC756644), sotorasib (NSC818433), MRTX-1133 (NSC836407), SN-38 (NSC673596), topotecan (NSC609699), epotoside (NSC141540), doxorubicin (NSC123127), gemcitabine (NSC613327), 5-fluorouracil (NSC19893), paclitaxel (NSC125973), vemurafenib (NSC761431), MSA-2 (NSC828583), SN-011 (NSC837082), adavosertib (NSC754352), prexasertib (NSC758257), carboplatin (NSC241240) and oxaliplatin (NSC266046), were obtained from the National Cancer Institute (NCI) Developmental Therapeutics Program Chemical Repository (21). The FDA-approved anticancer drug set is available from the Developmental Therapeutics Program at https://dtp.cancer.gov/organization/dscb/obtaining/. […] The stock solutions were prepared in dimethyl sulfoxide (DMSO, Sigma-Aldrich, St. Louis, MO, cat. D2650), except for the platinum compounds which were prepared in saline (Quality Biological, Gaithersburg, MD, cat. 114-055-101), at 800-fold the tested concentration and stored at -70 degrees C prior to their use. All drugs and investigational agents were tested over a range starting from a high concentration at or near the clinical Cmax and decreasing in half-log increments. If the clinical Cmax for an agent had not been determined, the highest concentration tested was 10 microM, except for SN-38, which was tested at a high concentration of 1 microM.
Cell Culture. All cells were maintained in an incubator at 37 degrees C and 5% CO2 with 95% humidity. The PDC lines were cultured according to standard operating procedures established by the NCI PDMR (https://pdmr.cancer.gov). Table 3 of the manuscript, lists the cell lines along with the number of the three cell types plated to form the mct-spheroids and media for tumor cell growth. After thawing, all PDC lines, except 997537-175-T-J1-PDC and 415267-285-R-J2-PDC, were cultured in Matrigel-coated flasks prepared with a working solution of 1X Ham's F-12 nutrient mix, without supplementation (Thermo Fisher Scientific, cat. 11765054), 100 U/mL penicillin-streptomycin (Thermo Fisher Scientific, cat. 15140122), and 2.5% Matrigel (Corning Inc., Corning, NY, cat. 354248) for the first three passages. The two PDC lines 997537-175-T-J1-PDC and 415267-285-R-J2-PDC were cultured on uncoated flasks. The 857933-349-R-J2-PDC line was cultured in 6C/Colon 1B media containing advanced DMEM/F-12 (Thermo Fisher Scientific, cat. 12634028), 10 mM HEPES (Thermo Fisher Scientific, cat. 15630080), 1X GlutaMAX supplement (Thermo Fisher Scientific, cat. 35050061), 0.1 mg/mL primocin (InvivoGen, San Diego, CA, cat. ant-pm-2), 10% defined fetal bovine serum, heat inactivated (HyClone Laboratories Inc., Logan, UT, cat. SH30070.03HI), 50% L-WRN conditioned media (ATCC, cat. CRL-3276), 1.25 mM N-Acetyl-L-cysteine (Sigma-Aldrich, cat. A9165), 10 mM nicotinamide (Sigma-Aldrich, cat. N0636), 1X B-27 supplement (Thermo Fisher Scientific, cat. 17504044), 1X N-2 supplement (Thermo Fisher Scientific, cat. […]

[1] = second compound 0.0316 µM, first compound 0.0316 µM
[2] = second compound 0.0316 µM, first compound 0.1 µM
[3] = second compound 0.0316 µM, first compound 0.316 µM
[4] = second compound 0.0316 µM, first compound 1 µM
[5] = second compound 0.1 µM, first compound 0.0316 µM
[6] = second compound 0.1 µM, first compound 0.1 µM
[7] = second compound 0.1 µM, first compound 0.316 µM
[8] = second compound 0.1 µM, first compound 1 µM
[9] = second compound 0.316 µM, first compound 0.0316 µM
[10] = second compound 0.316 µM, first compound 0.1 µM
[11] = second compound 0.316 µM, first compound 0.316 µM
[12] = second compound 0.316 µM, first compound 1 µM
[13] = second compound 1 µM, first compound 0.0316 µM
[14] = second compound 1 µM, first compound 0.1 µM
[15] = second compound 1 µM, first compound 0.316 µM
[16] = second compound 1 µM, first compound 1 µM
[17] = second compound 3.16 µM, first compound 0.0316 µM
[18] = second compound 3.16 µM, first compound 0.1 µM
[19] = second compound 3.16 µM, first compound 0.316 µM
[20] = second compound 3.16 µM, first compound 1 µM
[21] = second compound 10 µM, first compound 0.0316 µM
[22] = second compound 10 µM, first compound 0.1 µM
[23] = second compound 10 µM, first compound 0.316 µM
[24] = second compound 10 µM, first compound 1 µM
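Also: spheroids exposed to compounds for seven days.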
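For viability, T/C in this document: 100% = DMSO vehicle control viability.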

## C#Cc1c(F)ccc2cc(O)cc(-c3ncc4c(N5CC6CCC(C5)N6)nc(OCC56CCCN5CC(F)C6)nc4c3F)c12 (centres undefined) + Nc1ccc(C#CCN(C(=O)Cc2ncc(C(F)(F)F)cc2C(F)(F)F)c2ccc(F)cc2)nn1
Second compound 0.0316 µM
  pIC50: < 5.00
Second compound 0.1 µM
  pIC50: < 5.00
Second compound 0.316 µM
  pIC50: < 5.00
Second compound 1 µM
  pIC50: < 5.00
Second compound 3.16 µM
  pIC50: < 5.00
Second compound 10 µM
  pIC50: < 5.00
[1]
  viability, T/C: 101%
[2]
  viability, T/C: 114%
[3]
  viability, T/C: 91.2%
[4]
  viability, T/C: 97.5%
Second compound 0.0316 µM, first compound 3.16 µM
  viability, T/C: 99.8%
Second compound 0.0316 µM, first compound 10 µM
  viability, T/C: 84.8%
[5]
  viability, T/C: 99.8%
[6]
  viability, T/C: 108%
[7]
  viability, T/C: 83.5%
[8]
  viability, T/C: 116%
Second compound 0.1 µM, first compound 3.16 µM
  viability, T/C: 99.5%
Second compound 0.1 µM, first compound 10 µM
  viability, T/C: 79.6%
[9]
  viability, T/C: 97.1%
[10]
  viability, T/C: 106%
[11]
  viability, T/C: 94.9%
[12]
  viability, T/C: 85.2%
Second compound 0.316 µM, first compound 3.16 µM
  viability, T/C: 118%
Second compound 0.316 µM, first compound 10 µM
  viability, T/C: 110%
[13]
  viability, T/C: 93%
[14]
  viability, T/C: 121%
[15]
  viability, T/C: 105%
[16]
  viability, T/C: 92.7%
Second compound 1 µM, first compound 3.16 µM
  viability, T/C: 94.7%
Second compound 1 µM, first compound 10 µM
  viability, T/C: 96.8%
[17]
  viability, T/C: 121%
[18]
  viability, T/C: 120%
[19]
  viability, T/C: 94%
[20]
  viability, T/C: 107%
Second compound 3.16 µM, first compound 3.16 µM
  viability, T/C: 90.2%
Second compound 3.16 µM, first compound 10 µM
  viability, T/C: 96.3%
[21]
  viability, T/C: 117%
[22]
  viability, T/C: 107%
[23]
  viability, T/C: 109%
[24]
  viability, T/C: 112%
Second compound 10 µM, first compound 3.16 µM
  viability, T/C: 90.8%
Second compound 10 µM, first compound 10 µM
  viability, T/C: 119%

## C=CCn1c(=O)c2cnc(Nc3ccc(N4CCN(C)CC4)cc3)nc2n1-c1cccc(C(C)(C)O)n1 + Nc1ccc(C#CCN(C(=O)Cc2ncc(C(F)(F)F)cc2C(F)(F)F)c2ccc(F)cc2)nn1
Second compound 0.0316 µM
  pIC50: < 6.00
Second compound 0.1 µM
  pIC50: < 6.00
Second compound 0.316 µM
  pIC50: < 6.00
Second compound 1 µM
  pIC50: < 6.00
Second compound 3.16 µM
  pIC50: < 6.00
Second compound 10 µM
  pIC50: < 6.00
Second compound 0.0316 µM, first compound 0.00316 µM
  viability, T/C: 122%
Second compound 0.0316 µM, first compound 0.01 µM
  viability, T/C: 102%
[1]
  viability, T/C: 99.1%
[2]
  viability, T/C: 98.3%
[3]
  viability, T/C: 81.8%
[4]
  viability, T/C: 69%
Second compound 0.1 µM, first compound 0.00316 µM
  viability, T/C: 96.3%
Second compound 0.1 µM, first compound 0.01 µM
  viability, T/C: 110%
[5]
  viability, T/C: 89.4%
[6]
  viability, T/C: 107%
[7]
  viability, T/C: 90.7%
[8]
  viability, T/C: 70.1%
Second compound 0.316 µM, first compound 0.00316 µM
  viability, T/C: 102%
Second compound 0.316 µM, first compound 0.01 µM
  viability, T/C: 96.9%
[9]
  viability, T/C: 99.2%
[10]
  viability, T/C: 86.1%
[11]
  viability, T/C: 91.8%
[12]
  viability, T/C: 61.4%
Second compound 1 µM, first compound 0.00316 µM
  viability, T/C: 106%
Second compound 1 µM, first compound 0.01 µM
  viability, T/C: 91.8%
[13]
  viability, T/C: 79.9%
[14]
  viability, T/C: 86.2%
[15]
  viability, T/C: 93.8%
[16]
  viability, T/C: 67.6%
Second compound 3.16 µM, first compound 0.00316 µM
  viability, T/C: 117%
Second compound 3.16 µM, first compound 0.01 µM
  viability, T/C: 110%
[17]
  viability, T/C: 93.8%
[18]
  viability, T/C: 102%
[19]
  viability, T/C: 85.3%
[20]
  viability, T/C: 84.6%
Second compound 10 µM, first compound 0.00316 µM
  viability, T/C: 117%
Second compound 10 µM, first compound 0.01 µM
  viability, T/C: 100%
[21]
  viability, T/C: 96.7%
[22]
  viability, T/C: 94.7%
[23]
  viability, T/C: 100%
[24]
  viability, T/C: 78.2%
